Assay: xn = mol fraction of the nth substance listed
Settings: 101 kPa

CCCC[n+]1ccn(C)c1.[I-] + [Li+].[B-](F)(F)(F)F
x2 = 0
Settings | electrical conductivity [S/m]
298.15 K | 0.0234
303.15 K | 0.0262
313.15 K | 0.0308
318.15 K | 0.0326
323.15 K | 0.0345

F[B-](F)(F)F.[Li+] + CCCC[n+]1ccn(C)c1.[I-]
electrical conductivity [S/m]
Settings | 298.15 K | 303.15 K | 308.15 K | 313.15 K | 318.15 K | 323.15 K
x1 = 0.1 | 0.0385 | 0.0432 | – | 0.0519 | 0.0577 | 0.0647
x1 = 0.2 | – | 0.0477 | 0.0515 | 0.0584 | 0.0704 | –
x1 = 0.3 | 0.042 | 0.0488 | 0.0505 | 0.0512 | 0.0597 | 0.088
x1 = 0.4 | 0.035 | 0.0392 | 0.0461 | 0.0477 | 0.0513 | 0.0554
x1 = 0.5 | 0.0312 | 0.0373 | 0.0425 | 0.0463 | 0.0501 | 0.0549
